Results on nine molecules are retold here after patent US11541057B2, “Thienopyrimidinone NMDA receptor modulators and uses thereof” (Cadent Therapeutics, Inc., priority 2015, dated 2023).

T1 sequence (Q13224 27-1484, other chains not shown): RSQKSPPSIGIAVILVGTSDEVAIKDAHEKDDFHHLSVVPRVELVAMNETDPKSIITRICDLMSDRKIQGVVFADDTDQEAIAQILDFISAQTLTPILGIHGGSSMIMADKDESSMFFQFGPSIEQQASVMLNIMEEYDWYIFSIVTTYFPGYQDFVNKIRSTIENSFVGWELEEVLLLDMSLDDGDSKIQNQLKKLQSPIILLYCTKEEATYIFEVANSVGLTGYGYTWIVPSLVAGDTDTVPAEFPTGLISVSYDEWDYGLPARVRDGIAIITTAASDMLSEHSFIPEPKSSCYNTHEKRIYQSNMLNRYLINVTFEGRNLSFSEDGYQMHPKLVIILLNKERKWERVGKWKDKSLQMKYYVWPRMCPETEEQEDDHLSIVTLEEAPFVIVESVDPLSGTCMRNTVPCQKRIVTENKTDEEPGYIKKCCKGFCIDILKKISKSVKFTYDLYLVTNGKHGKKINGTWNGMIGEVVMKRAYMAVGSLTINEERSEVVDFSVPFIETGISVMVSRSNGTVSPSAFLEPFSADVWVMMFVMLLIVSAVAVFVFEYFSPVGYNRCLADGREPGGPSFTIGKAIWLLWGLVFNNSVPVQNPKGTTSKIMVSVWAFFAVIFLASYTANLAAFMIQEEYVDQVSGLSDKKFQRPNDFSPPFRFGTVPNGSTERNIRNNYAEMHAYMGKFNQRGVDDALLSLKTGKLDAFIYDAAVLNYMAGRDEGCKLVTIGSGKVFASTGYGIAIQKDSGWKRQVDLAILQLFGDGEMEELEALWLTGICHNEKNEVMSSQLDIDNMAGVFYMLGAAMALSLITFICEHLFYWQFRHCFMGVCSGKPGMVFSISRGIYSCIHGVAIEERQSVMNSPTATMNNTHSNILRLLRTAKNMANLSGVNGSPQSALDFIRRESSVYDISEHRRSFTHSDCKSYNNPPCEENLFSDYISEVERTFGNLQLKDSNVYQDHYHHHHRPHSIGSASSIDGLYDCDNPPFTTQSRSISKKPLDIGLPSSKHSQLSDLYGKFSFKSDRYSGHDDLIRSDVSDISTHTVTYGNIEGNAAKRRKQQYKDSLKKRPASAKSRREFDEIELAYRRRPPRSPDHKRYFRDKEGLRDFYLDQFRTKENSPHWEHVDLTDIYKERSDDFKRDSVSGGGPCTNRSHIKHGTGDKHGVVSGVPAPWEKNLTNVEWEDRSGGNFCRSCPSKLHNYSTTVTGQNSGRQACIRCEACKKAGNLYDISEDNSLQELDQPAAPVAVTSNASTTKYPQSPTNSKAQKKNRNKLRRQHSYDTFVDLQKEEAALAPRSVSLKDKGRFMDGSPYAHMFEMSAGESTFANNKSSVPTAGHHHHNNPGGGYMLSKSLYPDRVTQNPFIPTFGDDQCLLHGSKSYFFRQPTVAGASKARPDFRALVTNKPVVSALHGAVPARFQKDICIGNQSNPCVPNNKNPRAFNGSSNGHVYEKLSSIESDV

This assay has as its target T1, NMDA receptor GRIN1/GRIN2B (NR2B) expressed in HEK293 cells (Homo sapiens, UniProt Q13224).
T1 construct: host or cells: HEK293
The assay is described as follows: Reversal of Ro 25-6981-mediated suppression of the Ca2+ response (fluo-8 fluorescence, FDSS) in HEK293 cells expressing GRIN1 and GRIN2B. The format is cell-based. Particulars: % reversal=100*(R−Rneg)/(Rpos−Rneg) of Ro 25-6981 suppression of co-agonist (glutamate/glycine) Ca2+ response, 10 min pre-incubation, compound concentration not given. A digest of the protocol: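 HEK293 with stable GRIN1 and tetracycline-induced GRIN2B, loaded with fluo-8 and preincubated 10 min with compound plus Ro 25-6981 and 5,7-dichlorokynurenic acid. Ca2+ response recorded 2 min after glutamate/glycine/CaCl2 co-agonist addition. % reversal = 100*(R−Rneg)/(Rpos−Rneg) from end fluorescence ratios.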
Regarding `CCOC(=O)Cn1c(C)nc2scc(-c3ccc(Cl)cc3)c2c1=O` [Example 97, Ethyl 2-(5-(4-chlorophenyl)-2-methyl-4-oxothieno[2,3-d]pyrimidin-3(4H)-yl)acetate], the “Response Recovered (%)” value is reported as 2%.

Regarding `Cc1nc2scc(-c3ccc(Cl)cc3)c2c(=O)n1CC(=O)N1CCCC1` [Example 98, 5-(4-chlorophenyl)-2-methyl-3-(2-oxo-2-(pyrrolidin-1-yl)ethyl)thieno[2,3-d]pyrimidin-4(3H)-one], the “Response Recovered (%)” value is 6%.

As for `Cc1nc2scc(-c3ccc(Cl)cc3)c2c(=O)n1CC(=O)N1CCCC1C(F)(F)F` (stereo not drawn) [Example 99, 5-(4-chlorophenyl)-2-methyl-3-{2-oxo-2-[2-(trifluoromethyl)pyrrolidin-1-yl]ethyl}-3H,4H-thieno[2,3-d]pyrimidin-4-one], the “Response Recovered (%)” value turned out to be 3%.

For `CN(C)/C=N/n1cnc2scc(-c3ccc(Cl)c(C(F)(F)F)c3)c2c1=O` [Example 100, (E)-N′-(5-(4-chloro-3-(trifluoromethyl)phenyl)-4-oxothieno[2,3-d]pyrimidin-3(4H)-yl)-N,N-dimethylformimidamide], the “Response Recovered (%)” value was determined as 14%.

`O=C(CCn1cnc2scc(-c3ccc(Cl)c(C(F)(F)F)c3)c2c1=O)N1CCCC1` [Example 101, 5-(4-chloro-3-(trifluoromethyl)phenyl)-3-(3-oxo-3-(pyrrolidin-1-yl)propyl)thieno[2,3-d]pyrimidin-4(3H)-one]: the “Response Recovered (%)” value was 6%.

Turning to `O=C(CCn1cnc2scc(-c3ccc(Cl)c(C(F)(F)F)c3)c2c1=O)N1CCC(F)C1` (stereo not drawn) [Example 102, 5-[4-chloro-3-(trifluoromethyl)phenyl]-3-[3-(3-fluoropyrrolidin-1-yl)-3-oxopropyl]-3H,4H-thieno[2,3-d]pyrimidin-4-one], the “Response Recovered (%)” value was found to be 2%.

As for `O=C(CCn1cnc2scc(-c3ccc(Cl)c(C(F)(F)F)c3)c2c1=O)N1CCCC1C(F)(F)F` (stereo not drawn) [Example 103, 5-[4-chloro-3-(trifluoromethyl)phenyl]-3-{3-oxo-3-[2-(trifluoromethyl)pyrrolidin-1-yl]propyl}-3H,4H-thieno[2,3-d]pyrimidin-4-one], the “Response Recovered (%)” value was −2%.

For the molecule `O=C(Cn1c(C(F)(F)F)nc2scc(-c3ccc(Cl)cc3)c2c1=O)N1CCCC1C(F)(F)F` (stereo not drawn) [Example 104, 5-(4-chlorophenyl)-3-(2-oxo-2-(2-(trifluoromethyl)pyrrolidin-1-yl)ethyl)-2-(trifluoromethyl)thieno[2,3-d]pyrimidin-4(3H)-one], the “Response Recovered (%)” value is −2%.

As to `O=C(Cn1c(C(F)(F)F)nc2scc(-c3ccc(Cl)cc3)c2c1=O)N1CCCC1` [Example 105, 5-(4-chlorophenyl)-3-[2-oxo-2-(pyrrolidin-1-yl)ethyl]-2-(trifluoromethyl)-3H,4H-thieno[2,3-d]pyrimidin-4-one], the “Response Recovered (%)” value is recorded as −1%.
